For series [1], the system named is Murine macrophages J774.A1. The experiment in a line: Cytotoxicity assay (alamarBlue). As to conditions: murine macrophages, 24 h, mean ± standard deviation. Type of series: cell-based. Here is the method: Murine macrophages J774.A1 strain ATCC #TIB-67, acquired from American Type Culture Collection (ATTC, LGC Promochem, Barcelona, Spain), were cultured in DMEM medium and maintained at 37 °C and 5% CO2. This assay followed the same principle as the previous one, but in this case, macrophages were used instead of parasites to determine the toxicity of the compounds. A total of 50 μL with a concentration of 2 × 10^5 cells/mL was added to each well with serial dilutions of the compounds in 50 μL of RPMI medium. After this, 10% of alamarBlue™ reagent was added and the plate was incubated at 37 °C and 5% CO2 for 24 h. After this time, the fluorescence was read using the EnSpire Multimode Plate Reader® and the cytotoxic concentration 50 (IC50) was calculated. Inhibitory and cytotoxic concentrations (IC50, IC90, and CC50) were determined in duplicate on three different days using non-linear regression [Inhibitor] vs. response variable slope (four parameters) using non-linear regression analysis with 95% confidence, using GraphPad Prism 10.1.1 statistical software. The analysis was developed using Tukey’s test, considering significant values of p < 0.05. ANOVA analysis was also performed using GraphPad Prism 10.1.1.
For orientation: Alamar Blue is a resazurin reagent that responds to reducing activity.

In series [2] the test system is Trypanosoma cruzi parasites. The experiment in a line: Induction of cell death mechanisms (ATP, SYTOX Green, JC-1, Hoechst/PI, CellROX). Type of series: cell-based. As to conditions: parasites incubated 24 h with the IC90 of the compounds. As for the experimental part: To observe these events, parasites were incubated for 24 h with the IC90 of the compounds. After that, the plate was centrifuged at 3000 rpm at 4 °C for 10 min to remove the supernatant. The pellet was then resuspended in buffer and the different kits were added following the manufacturer’s instructions. CellTiter-Glo® Luminescent Cell Viability Assay was used to determine the ATP levels of the parasitic cells. This kit contains luciferin upon contact with cell metabolism, oxidises to oxyluciferin and emitting luminescence. The procedure was as follows: after 24 h of incubation and centrifugation, the pellet was resuspended in 25 μL of buffer and mixed with 25 μL of CellTiter-Glo® in the dark, shaking for 2 min. Then, after 15 min of incubation at room temperature, the luminescence was read in the EnSpire Multimode Plate Reader® [20]. In PCD, there is an alteration in the permeability of the plasma membrane, but the cell structure is maintained. The SYTOX™ Green Stain (Thermo Fischer Scientific, Madrid, Spain) only penetrates cells with increased plasma permeability. Once inside the cell, it will bind to the DNA and emit green fluorescence. After incubation and centrifugation, the pellet was resuspended in 50 μL of buffer and the reagent was added at a concentration of 1 μM. […]

In series [3] the test system is amastigote form of T. cruzi. The experiment in a line: In vitro amastigote activity assay (alamarBlue, intracellular parasites in macrophages). Type of series: cell-based, Trypanosoma cruzi. As for the experimental part: To perform the assay against the intracellular form of the parasite, the same colorimetric method based on the alamarBlue was developed. To produce the internalization of the parasites, an excess of epimastigote forms were added (10^5:10^4 parasites/macrophages in 100 µL of DMEM) to a 96-well plate for 24 h at 37 °C. Then, the wells were washed 3 times to eliminate the non-internalized parasites, and the serial dilutions of the compounds were added and dissolved in DMEM medium. After another incubation of 24 h at 37 °C, the drugs were eliminated and the cells were lysed with 0.05% SDS for 30 s. After adding LIT in a final volume of 200 µL and 10% of alamarBlue™ reagent, the plates were incubated for 96 h to promote the externalization of the parasites. Finally, the fluorescence was read using the EnSpire Multimode Plate Reader® and the inhibitory concentration 50 (IC50) was calculated. Inhibitory and cytotoxic concentrations (IC50, IC90, and CC50) were determined in duplicate on three different days using non-linear regression [Inhibitor] vs. response variable slope (four parameters) using non-linear regression analysis with 95% confidence, using GraphPad Prism 10.1.1 statistical software. The analysis was developed using Tukey’s test, considering significant values of p < 0.05. ANOVA analysis was also performed using GraphPad Prism 10.1.1.

What is called IC50 is the concentration that inhibits the measured activity by half. Regarding `N=C1C=CC(=O)N1c1ccccc1` [B], the “IC50 (cytotoxic concentration 50, CC50)” value in series [1] stood at 118.07 ± 11.90 µM. In series [2], the “type of cell death produced” value is given as “late phase of this type of cell death”. In addition, in series [3] (Trypanosoma cruzi, Macrophage, amastigote form of T. cruzi in macrophages, 24 h with compound at 37 °C, mean ± standard deviation), the IC50 is 10.8 ± 2.11 µM. Besides, in series [3] (against the amastigote form of T. cruzi, CC50 murine macrophages), the “SI (selectivity index, CC50/IC50)” value is given as 10.9.

Values taken from paper PMC11436024, “E-Cyanoacrylamides and 5-Imino Pyrrolones against Trypanosoma cruzi: Activity and Induced Mechanisms of Cell Death” (Tropical Medicine and Infectious Disease, 2024).
